Laboratory results taken from US12077503B2, “Substituted cyclic amides and their use as herbicides” (FMC CORPORATION, priority 2015, dated 2024).

Key:
Type in all cases: in vivo
[1] = system: ivy-leaved morning glory (Ipomoea hederacea); test: Test G Post-Emergence Protocol; details: Ipomoea, post-emergence, 312 h, read-out: Morningglory, Ivy-leaved damage rating
Outline: (§1)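 Values are percent visual injury at 13 days after treatment (0 none, 100 total). Treatment was a post-emergence spray at 15.625, 62.5 or 250 g/ha on 8-day-old pot plants kept at 24/16 °C.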

[2] = system: barnyardgrass (Echinochloa crus-galli); test: Test G Post-Emergence Protocol; details: Echinochloa crus-galli, post-emergence, 312 h, read-out: Barnyardgrass damage rating
Outline: as §1

[3] = system: giant foxtail (Setaria faberi); test: Test G Post-Emergence Protocol; details: Setaria faberi, post-emergence, 312 h, read-out: Foxtail, Giant damage rating
Outline: as §1

corn (Zea mays) [4] = test: Test G Post-Emergence Protocol; details: Zea mays, post-emergence, 312 h, read-out: Corn damage rating
Outline: as §1

[5] = system: velvetleaf (Abutilon theophrasti); test: Test G Post-Emergence Protocol; details: Abutilon theophrasti, post-emergence, 312 h, read-out: Velvetleaf damage rating
Outline: as §1

[6] = system: redroot pigweed (Amaranthus retroflexus); test: Test G Post-Emergence Protocol; details: Amaranthus retroflexus, post-emergence, 312 h, read-out: Pigweed, Redroot damage rating
Outline: as §1

[7] = system: ivy-leaved morning glory (Ipomoea hederacea); test: Test G Pre-Emergence Protocol; details: Ipomoea, pre-emergence, 312 h, evaluated after 13 days
Outline: (§2)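 One day after sowing, pots are treated with a spray of test compound formulated in acetone/water 50:50 plus 0.5% Tween 20, giving 15.625, 62.5 or 250 g/ha. Evaluation on a 0–100 damage scale follows 13 days of glasshouse growth.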

[8] = system: barnyardgrass (Echinochloa crus-galli); test: Test G Pre-Emergence Protocol; details: Echinochloa crus-galli, pre-emergence, 312 h, evaluated after 13 days
Outline: as §2

[9] = system: giant foxtail (Setaria faberi); test: Test G Pre-Emergence Protocol; details: Setaria faberi, pre-emergence, 312 h, evaluated after 13 days
Outline: as §2

corn (Zea mays) [10] = test: Test G Pre-Emergence Protocol; details: Zea mays, pre-emergence, 312 h, evaluated after 13 days
Outline: as §2

[11] = system: velvetleaf (Abutilon theophrasti); test: Test G Pre-Emergence Protocol; details: Abutilon theophrasti, pre-emergence, 312 h, evaluated after 13 days
Outline: as §2

[12] = system: redroot pigweed (Amaranthus retroflexus); test: Test G Pre-Emergence Protocol; details: Amaranthus retroflexus, pre-emergence, 312 h, evaluated after 13 days
Outline: as §2

[13] = 15.625 g ai/ha, evaluated after 13 days (100=total damage to plant; 0=no damage to plant)
[14] = 62.5 g ai/ha, evaluated after 13 days, 100=total damage to plant, 0=no damage to plant
[15] = 250 g ai/ha, evaluated after 13 days, 100=total damage to plant, 0=no damage to plant

Cc1cccc(NC(=O)[C@H]2C(=O)N(C)C[C@@H]2c2ccc(C(F)(F)F)cc2)[n+]1[O-] (racemic) [Compound 1805]
60%: pest or weed control at 62.5 g/ha [6, 14]
20%: pest or weed control at 62.5 g/ha [5, 14] | pest or weed control at 62.5 g/ha ([11]; 62.5 g ai/ha, 100=total damage to plant, 0=no damage to plant, read-out: Velvetleaf damage rating) | pest or weed control at 250 g/ha ([11]; 250 g ai/ha, read-out: Velvetleaf damage rating (100=total damage to plant; 0=no damage to plant)) | pest or weed control at 15.625 g/ha ([12]; 15.625 g ai/ha, read-out: Pigweed, Redroot damage rating (100=total damage to plant; 0=no damage to plant))
10%: pest or weed control at 15.625 g/ha [6, 13] | pest or weed control at 250 g/ha ([9]; 250 g ai/ha, read-out: Foxtail, Giant damage rating (100=total damage to plant; 0=no damage to plant)) | pest or weed control at 62.5 g/ha ([12]; 62.5 g ai/ha, 100=total damage to plant, 0=no damage to plant, read-out: Pigweed, Redroot damage rating)
40%: pest or weed control at 250 g/ha [3, 15] | pest or weed control at 250 g/ha [6, 15]
0%: pest or weed control at 15.625 g/ha [1, 13] | pest or weed control at 15.625 g/ha [2, 13] | pest or weed control at 62.5 g/ha [2, 14] | pest or weed control at 250 g/ha [2, 15] | pest or weed control at 15.625 g/ha [3, 13] | plant injury at 15.625 g/ha (corn (Zea mays) [4]; [13]) | plant injury at 62.5 g/ha (corn (Zea mays) [4]; [14]) | plant injury at 250 g/ha (corn (Zea mays) [4]; [15]) | pest or weed control at 15.625 g/ha [5, 13] | pest or weed control at 15.625 g/ha ([7]; 15.625 g ai/ha, read-out: Morningglory, Ivy-leaved damage rating (100=total damage to plant; 0=no damage to plant)) | pest or weed control at 62.5 g/ha ([7]; 62.5 g ai/ha, 100=total damage to plant, 0=no damage to plant, read-out: Morningglory, Ivy-leaved damage rating) | pest or weed control at 250 g/ha ([7]; 250 g ai/ha, read-out: Morningglory, Ivy-leaved damage rating (100=total damage to plant; 0=no damage to plant)) | pest or weed control at 15.625 g/ha ([8]; 15.625 g ai/ha, read-out: Barnyardgrass damage rating (100=total damage to plant; 0=no damage to plant)) | pest or weed control at 62.5 g/ha ([8]; 62.5 g ai/ha, 100=total damage to plant, 0=no damage to plant, read-out: Barnyardgrass damage rating) | pest or weed control at 250 g/ha ([8]; 250 g ai/ha, read-out: Barnyardgrass damage rating (100=total damage to plant; 0=no damage to plant)) | pest or weed control at 15.625 g/ha ([9]; 15.625 g ai/ha, read-out: Foxtail, Giant damage rating (100=total damage to plant; 0=no damage to plant)) | pest or weed control at 62.5 g/ha ([9]; 62.5 g ai/ha, 100=total damage to plant, 0=no damage to plant, read-out: Foxtail, Giant damage rating) | plant injury at 15.625 g/ha (corn (Zea mays) [10]; 15.625 g ai/ha, read-out: Corn damage rating (100=total damage to plant; 0=no damage to plant)) | plant injury at 62.5 g/ha (corn (Zea mays) [10]; 62.5 g ai/ha, 100=total damage to plant, 0=no damage to plant, read-out: Corn damage rating) | plant injury at 250 g/ha (corn (Zea mays) [10]; 250 g ai/ha, read-out: Corn damage rating (100=total damage to plant; 0=no damage to plant)) | pest or weed control at 15.625 g/ha ([11]; 15.625 g ai/ha, read-out: Velvetleaf damage rating (100=total damage to plant; 0=no damage to plant))
30%: pest or weed control at 62.5 g/ha [1, 14] | pest or weed control at 250 g/ha [1, 15] | pest or weed control at 62.5 g/ha [3, 14] | pest or weed control at 250 g/ha [5, 15] | pest or weed control at 250 g/ha ([12]; 250 g ai/ha, read-out: Pigweed, Redroot damage rating (100=total damage to plant; 0=no damage to plant))
